# Laboratory results reported in ChEMBL document CHEMBL3351937, “Potential C-terminal-domain inhibitors of heat shock protein 90 derived from a C-terminal peptide helix” (Bioorg Med Chem, 2014).
# Active and inactive are the calls of the source. The calls are words filed in the database; no cut-off is given here. Bridge positions count the residues as written; N and C are the ends. Square brackets hold non-standard residues; d marks the D form. Peptide text beside a SMILES is read from it. * marks the point of attachment. 5FAM = O=C1OC2(c3ccc(O)cc3Oc3cc(O)ccc32)c2ccc(C(=O)*)cc21; S5 = C=CCCC[C@](C)(N)C(=O)O
# Assays:
# [1] = biological target: T1, Heat shock protein HSP 90-beta (Homo sapiens, UniProt P08238); experiment: Binding affinity to human HSP90 using FITC-labeled compound at 1 nM by fluorescence polarization assay
# [2] = biological target: T1, Heat shock protein HSP 90-beta; experiment: Binding affinity to human HSP90 using FAM-labeled compound by fluorescence polarization assay
# [3] = Solubility in phosphate buffer; type: physicochemical
# MDA-kb2 = experiment: Induction of plasma membrane disruption in human MDA-kb2 cells; type: functional, cell-based
# [4] = biological target: T2, Heat shock protein HSP 90 (Oryctolagus cuniculus, UniProt P11500); experiment: Inhibition of HSP90 in rabbit reticulocyte lysate after 90 mins by luciferase renaturation assay
# T2 sequence (P11500 whole entry): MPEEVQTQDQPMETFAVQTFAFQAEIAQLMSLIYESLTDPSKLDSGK
# [5] = biological target: T1, Heat shock protein HSP 90-beta; experiment: Inhibition of HSP90 in human MDA-kb2 cells assessed as reduction in glucocorticoid receptor-dependent luciferase expression after 18 hrs by firefly luciferase reporter gene assay; type: cell-based
# [6] = Cytotoxicity against human MDA-kb2 cells assessed as reduction in cell viability after 18 hrs by Promega cell titer-Glo assay; type: functional; details: MDA-kb2, 18 h, read-out: LC50 (the source's name)
# [7] = biological target: T3, Heat shock protein HSP 90 (Oryctolagus cuniculus) (UniProt P11500); experiment: Inhibition of HSP90 in rabbit reticulocyte lysate at 250 uM after 90 mins by luciferase renaturation assay
# T3 sequence (whole entry): T2 sequence (P11500 whole entry)
# T1 sequence (P08238 whole entry): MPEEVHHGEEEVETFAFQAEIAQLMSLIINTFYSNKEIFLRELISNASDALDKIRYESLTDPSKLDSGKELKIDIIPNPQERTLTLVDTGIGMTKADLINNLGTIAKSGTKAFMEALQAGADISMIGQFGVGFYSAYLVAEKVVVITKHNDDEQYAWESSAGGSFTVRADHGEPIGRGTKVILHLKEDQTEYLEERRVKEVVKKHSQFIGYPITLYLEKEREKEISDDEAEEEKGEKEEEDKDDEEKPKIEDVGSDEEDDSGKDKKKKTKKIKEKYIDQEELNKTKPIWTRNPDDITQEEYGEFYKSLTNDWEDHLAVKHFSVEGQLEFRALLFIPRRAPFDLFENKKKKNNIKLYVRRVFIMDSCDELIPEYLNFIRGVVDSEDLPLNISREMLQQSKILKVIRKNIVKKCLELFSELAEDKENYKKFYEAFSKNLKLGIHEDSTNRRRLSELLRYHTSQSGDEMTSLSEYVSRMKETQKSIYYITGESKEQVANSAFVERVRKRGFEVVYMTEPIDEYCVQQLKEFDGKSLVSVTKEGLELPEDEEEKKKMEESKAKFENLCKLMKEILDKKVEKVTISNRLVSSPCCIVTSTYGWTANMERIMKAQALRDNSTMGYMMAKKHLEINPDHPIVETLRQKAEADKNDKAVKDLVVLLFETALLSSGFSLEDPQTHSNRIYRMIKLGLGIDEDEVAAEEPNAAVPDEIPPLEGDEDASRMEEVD
inhibition [7],Compound,solubility [3] [µM],IC50 [4] [µM],IC50 [5] [µM],CC50 [6] [µM],further results
,CO[C@H]1/C=C\C=C(/C)C(=O)NC2=CC(=O)C(NCCCCCCNC(=S)Nc3ccc(-c4c5ccc(=O)cc-5oc5cc(O)ccc45)c(C(=O)O)c3)=C(C[C@@H](C)C[C@H](OC)[C@H](O)[C@@H](C)/C=C(\C)[C@@H]1OC(N)=O)C2=O,,,,,Activity [1]: Active
,CC[C@H](C)[C@H](NC(=O)[C@H](CCCNC(=N)N)NC(=O)[C@H](CC(N)=O)NC(=O)[C@H](C)NC(=O)[C@H](Cc1cnc[nH]1)NC(=O)[C@@H](NC(=O)[C@H](CCC(N)=O)NC(=O)[C@@H]1CCCN1C(=O)[C@H](CC(=O)O)NC(=O)c1ccc2c(c1)C(=O)OC21c2ccc(O)cc2Oc2cc(O)ccc21)[C@@H](C)O)C(=O)N[C@@H](Cc1c[nH]c2ccccc12)C(=O)N[C@@H](CCCNC(=N)N)C(=O)N[C@@H](CCSC)C(=O)N[C@H](C(=O)N[C@@H](CCCCN)C(=O)N[C@@H](CC(C)C)C(=O)N[C@@H](Cc1c[nH]c2ccccc12)C(=O)N[C@@H](CC(C)C)C(=O)N[C@@H](CC(=O)O)C(N)=O)[C@@H](C)CC (5FAM-DPQTHANRIWRMIKLWLD-NH2),,,,,Activity [2]: inactive
,CC[C@H](C)[C@H](NC(=O)[C@H](CCCNC(=N)N)NC(=O)[C@H](CC(N)=O)NC(=O)[C@H](C)NC(=O)[C@H](Cc1cnc[nH]1)NC(=O)[C@@H](NC(=O)[C@H](CCC(N)=O)NC(=O)[C@@H]1CCCN1C(=O)[C@H](CC(=O)O)NC(C)=O)[C@@H](C)O)C(=O)N[C@@H](Cc1c[nH]c2ccccc12)C(=O)N[C@@H](CCCNC(=N)N)C(=O)N[C@@H](CCSC)C(=O)N[C@H](C(=O)N[C@H]1CCCCNC(=O)C[C@@H](C(N)=O)NC(=O)[C@H](CC(C)C)NC(=O)[C@H](Cc2c[nH]c3ccccc23)NC(=O)[C@H](CC(C)C)NC1=O)[C@@H](C)CC (Ac-DPQTHANRIWRMIKLWLD-NH2; lactam 14-18),≥ 100,4.11,0.73,1.86,Activity (MDA-kb2): Active
,CC[C@H](C)[C@H](NC(=O)[C@H](CCCNC(=N)N)NC(=O)[C@H](CC(N)=O)NC(=O)[C@H](C)NC(=O)[C@H](Cc1cnc[nH]1)NC(=O)[C@@H](NC(=O)[C@H](CCC(N)=O)NC(=O)[C@@H]1CCCN1C(=O)[C@H](CC(=O)O)NC(C)=O)[C@@H](C)O)C(=O)N[C@@H](Cc1ccc(O)cc1)C(=O)N[C@@H](CCCNC(=N)N)C(=O)N[C@H]1CCCCNC(=O)C[C@@H](C(=O)N[C@@H](CC(C)C)C(=O)NCC(N)=O)NC(=O)[C@H](CC(C)C)NC(=O)[C@H](CCCCN)NC(=O)[C@H]([C@@H](C)CC)NC1=O (Ac-DPQTHANRIYRKIKLDLG-NH2; lactam 12-16),≥ 100,137,> 67,> 67,
,CC[C@H](C)[C@H](NC(=O)[C@H](CCCNC(=N)N)NC(=O)[C@H](CC(N)=O)NC(=O)[C@H](C)NC(=O)[C@H](Cc1cnc[nH]1)NC(=O)[C@@H](NC(=O)[C@H](CCC(N)=O)NC(=O)[C@@H]1CCCN1C(=O)[C@H](CC(=O)O)NC(C)=O)[C@@H](C)O)C(=O)N[C@@H](Cc1ccc(O)cc1)C(=O)N[C@@H](CCCNC(=N)N)C(=O)N[C@@H](CCSC)C(=O)N[C@H](C(=O)N[C@H]1CCCCNC(=O)C[C@@H](C(=O)O)NC(=O)[C@H](CC(C)C)NC(=O)CNC(=O)[C@H](CC(C)C)NC1=O)[C@@H](C)CC (Ac-DPQTHANRIYRMIKLGLD-OH; lactam 14-18),≥ 100,37,121,97,
,CC[C@H](C)[C@H](NC(=O)[C@H](CCCNC(=N)N)NC(=O)[C@H](CC(N)=O)NC(=O)[C@H](C)NC(=O)[C@H](Cc1cnc[nH]1)NC(=O)[C@@H](NC(=O)[C@H](CCC(N)=O)NC(=O)[C@@H]1CCCN1C(=O)[C@H](CC(=O)O)NC(C)=O)[C@@H](C)O)C(=O)N[C@@H](Cc1ccc(O)cc1)C(=O)N[C@@H](CCCNC(=N)N)C(=O)N[C@@H](CCSC)C(=O)N[C@H](C(=O)N[C@H]1CCCCNC(=O)C[C@@H](C(N)=O)NC(=O)[C@H](CC(C)C)NC(=O)[C@H](Cc2c[nH]c3ccccc23)NC(=O)[C@H](CC(C)C)NC1=O)[C@@H](C)CC (Ac-DPQTHANRIYRMIKLWLD-NH2; lactam 14-18),≥ 100,8.43,> 27,> 27,
,C=CCCC[C@](C)(NC(=O)[C@H](CC(C)C)NC(=O)[C@H](CCCCN)NC(=O)[C@@H](NC(=O)[C@](C)(CCCC=C)NC(=O)[C@H](CCCNC(=N)N)NC(=O)[C@H](Cc1ccc(O)cc1)NC(=O)[C@@H](NC(=O)[C@H](CCCNC(=N)N)NC(=O)[C@H](CC(N)=O)NC(=O)[C@H](C)NC(=O)[C@H](Cc1cnc[nH]1)NC(=O)[C@@H](NC(=O)[C@H](CCC(N)=O)NC(=O)[C@@H]1CCCN1C(=O)[C@H](CC(=O)O)NC(C)=O)[C@@H](C)O)[C@@H](C)CC)[C@@H](C)CC)C(=O)N[C@@H](CC(C)C)C(=O)NCC(N)=O (Ac-DPQTHANRIYR[S5]IKL[S5]LG-NH2),≥ 100,,,19.1,
,CC[C@H](C)[C@H](NC(=O)[C@H](CCCNC(=N)N)NC(=O)[C@H](CC(N)=O)NC(=O)[C@H](C)NC(=O)[C@H](Cc1cnc[nH]1)NC(=O)[C@@H](NC(=O)[C@H](CCC(N)=O)NC(=O)[C@@H]1CCCN1C(=O)[C@H](CC(=O)O)NC(C)=O)[C@@H](C)O)C(=O)N[C@@H](Cc1ccc(O)cc1)C(=O)N[C@@H](CCCNC(=N)N)C(=O)N[C@@]1(C)CCC/C=C/CCC[C@@](C)(C(=O)N[C@@H](CC(C)C)C(=O)NCC(N)=O)NC(=O)[C@H](CC(C)C)NC(=O)[C@H](CCCCN)NC(=O)[C@H]([C@@H](C)CC)NC1=O (Ac-DPQTHANRIYR[S5]IKL[S5]LG-NH2; staple (E) 12-16),≥ 100,37.9,18.8,26.6,
,CSCC[C@@H]1NC(=O)[C@H](CCCNC(=N)N)NC(=O)[C@H](Cc2ccc(O)cc2)NC(=O)[C@@H](NC(=O)[C@H](CCCNC(=N)N)NC(=O)[C@H](CC(N)=O)NC(=O)[C@H](C)NC(=O)[C@H](Cc2cnc[nH]2)NC(=O)[C@@H](NC(=O)[C@H](CCC(N)=O)NC(=O)[C@@H]2CCCN2C(=O)[C@H](CC(=O)O)NC(C)=O)[C@@H](C)O)CCCCNC(=O)C[C@@H](C(=O)N[C@@H](CCCCN)C(=O)N[C@@H](CC(C)C)C(=O)NCC(=O)N[C@@H](CC(C)C)C(=O)NCC(N)=O)NC1=O (Ac-DPQTHANRKYRMDKLGLG-NH2; lactam 9-13),≥ 100,168,> 120,> 120,
,CO[C@H]1[C@H](OC(=O)c2ccc(C)[nH]2)[C@H](O)[C@@H](Oc2ccc3c(O)c(NC(=O)c4c[nH]c(C(=O)Nc5c(O)c6ccc(O[C@H]7OC(C)(C)[C@@H](OC)[C@H](OC(=O)c8ccc(C)[nH]8)[C@@H]7O)c(C)c6oc5=O)c4C)c(=O)oc3c2C)OC1(C)C [COUMERMYCIN A1],,28.1,15.3,19.1,
,COC1=C2C[C@@H](C)C[C@H](OC)[C@H](O)[C@@H](C)/C=C(\C)[C@H](OC(N)=O)[C@@H](OC)/C=C\C=C(/C)C(=O)NC(=CC1=O)C2=O [GELDANAMYCIN],,,,> 2,
Active,Ac-DPFTHANRIYRMIKLGLG-NH2,,,,,
Active,Ac-DPQTFANRIYRMIKLGLG-NH2,,,,,
Active,Ac-DPQTHANRIWRMIKLGLG-NH2,,,,,
Active,Ac-DPQTHANRIYRLIKLGLG-NH2,,,,,
Active,Ac-DPQTHANRIYRMIKLGNG-NH2,,,,,
,Ac-DPQTHANRIYRMIKLWLG-NH2,≥ 100,,,18.9,Activity (MDA-kb2): Active
inactive,Ac-FQAEIAQLMSLIINTFY-NH2,,,,,

Compound,inhibition [7],solubility [3] [µM],IC50 [4] [µM],IC50 [5] [µM],CC50 [6] [µM],further results
CO[C@@H]1[C@@H](OC(N)=O)[C@@H](O)[C@H](Oc2ccc3c(O)c(NC(=O)c4ccc(O)c(CC=C(C)C)c4)c(=O)oc3c2C)OC1(C)C [NOVOBIOCIN],Active,,,,690,
Ac-DPQTHANRIYRMIKLGLG-NH2,Active,≥ 100,233,> 160,> 160,
Ac-DPQTHANRIYRMIKLLLG-NH2,Active,≥ 100,,18.6,22.9,
